{
  "source": "paper PMC5691318",
  "about": "(Journal of the American Chemical Society, 2017)",
  "molecules": {"B1": {"name": "14-3-3ζ (protein)", "chain": "MDKNELVQKAKLAEQAERYDDMAACMKSVTEQGAELSNEERNLLSVAYKNVVGARRSSWRVVSSIEQKTEGAEKKQQMAREYREKIETELRDICNDVLSLLEKFLIPNASQAESKVFYLKMKGDYYRYLAEVAAGDDKKGIVDQSQQAYQEAFEISKKEMQPTHPIRLGLALNFSVFYYEILNSPEKACSLAKTAFDEAIAELDTLSEESYKDSTLIMQLLRDNLTLWTSDTQGDEAEAGEGGEN"}},
  "key": {"14-3-3/C-Raf peptide": {"tested_on": "14-3-3/C-Raf peptide", "conditions": "fluorescence polarization, labeled peptide; ref [31]; cited from earlier work"}, "[1]": {"tested_on": "14-3-3/Exoenzyme S peptide", "conditions": "fluorescence polarization, labeled peptide; ref [31]; cited from earlier work"}, "[2]": {"assay": "Potentiometric pKa determination", "format": "physicochemical", "conditions": "determined potentiometrically"}, "[3]": {"tested_on": "14-3-3ζ/Cdc25CpS216 interaction", "assay": "ITC: reinforcement of the 14-3-3ζ/Cdc25CpS216 interaction by CLR01", "format": "binding", "conditions": "250 μM or 1.5 mM CLR01 vs no CLR01"}, "14-3-3ζ": {"biological_target": "T1, 14-3-3ζ (Homo sapiens, UniProt P63104)", "T1 sequence (P63104 1-230)": "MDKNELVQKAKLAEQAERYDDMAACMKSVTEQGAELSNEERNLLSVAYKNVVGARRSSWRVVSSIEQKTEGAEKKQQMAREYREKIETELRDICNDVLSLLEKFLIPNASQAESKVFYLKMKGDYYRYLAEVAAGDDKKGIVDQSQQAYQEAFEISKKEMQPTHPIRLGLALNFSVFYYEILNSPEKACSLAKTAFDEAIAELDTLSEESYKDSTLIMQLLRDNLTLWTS", "T1 sequence (P30307 207-244 partner)": "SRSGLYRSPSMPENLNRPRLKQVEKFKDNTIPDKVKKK", "assay": "Isothermal titration calorimetry", "format": "binding"}, "[4]": {"tested_on": "14-3-3 proteins with the potassium channel TASK3", "conditions": "ref [47]; cited from earlier work"}, "[5]": {"tested_on": "TASK3 plasma membrane localization", "conditions": "ref [47]; cited from earlier work"}, "Arf1/Arf1GAP": {"tested_on": "Arf1/Arf1GAP", "conditions": "ref [48],[49]; cited from earlier work"}, "[6]": {"tested_on": "14-3-3 with the protein kinase C-Raf", "conditions": "ref [48]; cited from earlier work"}, "[7]": {"tested_on": "14-3-3 with the chloride channel CFTR", "conditions": "ref [18]; cited from earlier work"}, "Cdc25CpS216 peptide [8]": {"biological_target": "T2, Cdc25CpS216 peptide (Homo sapiens, not fully specified; phosphoSer216, 1.5 mM CLR01)", "T2 chain": "T1 sequence (P30307 207-244 partner)", "assay": "ITC"}, "Cdc25CpS216 peptide [9]": {"biological_target": "T3, Cdc25CpS216 peptide (Homo sapiens, not fully specified; phosphoSer216)", "T3 chain": "T1 sequence (P30307 207-244 partner)", "assay": "ITC"}, "Cdc25CpS216 peptide [10]": {"biological_target": "T4, Cdc25CpS216 peptide (Homo sapiens, not fully specified; phosphoSer216, 250 μM CLR01)", "T4 chain": "T1 sequence (P30307 207-244 partner)", "assay": "ITC"}},
  "note": "Where a SMILES comes first, the peptide text is derived from it. [ ]: non-standard residue; d: D form. pS = N[C@@H](COP(=O)(O)O)C(=O)O",
  "data": [
    {"molecule": "O=P(O)(O)Oc1c2c(c(OP(=O)(O)O)c3c1C1CC3c3cc4c(cc31)C1CC4c3ccccc31)C1CC2c2cc3c(cc21)C1CC3c2ccccc21", "note": "[CLR01]", "values": [
      {"measurement": "effect on binding of C-Raf-derived peptide to 14-3-3", "setting": "14-3-3/C-Raf peptide", "value": "inhibited"},
      {"measurement": "effect on binding of Exoenzyme S-derived peptide to 14-3-3", "setting": "[1]", "value": "inhibited"},
      {"measurement": "second pKa value of the hydrogen phosphate group", "setting": "[2]", "value": 7.4},
      {"measurement": "reinforcement of the 14-3-3ζ/Cdc25CpS216 interaction", "setting": "[3]", "value": "2–3 fold"}
    ]},
    {"molecule": "CC[C@H](C)[C@H](NC(=O)[C@@H](NC(=O)[C@H](CC(N)=O)NC(=O)[C@H](CC(=O)O)NC(=O)[C@H](CCCCN)NC(=O)[C@H](Cc1ccccc1)NC(=O)[C@H](CCCCN)NC(=O)[C@H](CCC(=O)O)NC(=O)[C@@H](NC(=O)[C@H](CCC(N)=O)NC(=O)[C@H](CCCCN)NC(=O)[C@H](CC(C)C)NC(=O)[C@H](CCCNC(=N)N)NC(=O)[C@@H]1CCCN1C(=O)[C@H](CCCNC(=N)N)NC(=O)[C@H](CC(N)=O)NC(=O)[C@H](CC(C)C)NC(=O)[C@H](CC(N)=O)NC(=O)[C@H](CCC(=O)O)NC(=O)[C@@H]1CCCN1C(=O)[C@H](CCSC)NC(=O)[C@H](COP(=O)(O)O)NC(=O)[C@@H]1CCCN1C(=O)[C@H](CO)NC(=O)[C@H](CCCNC(=N)N)NC(=O)[C@H](Cc1ccc(O)cc1)NC(=O)[C@H](CC(C)C)NC(=O)CNC(=O)[C@H](CO)NC(=O)[C@H](CCCNC(=N)N)NC(=O)[C@@H](N)CO)C(C)C)[C@@H](C)O)C(=O)N1CCC[C@H]1C(=O)N[C@@H](CC(=O)O)C(=O)N[C@@H](CCCCN)C(=O)N[C@H](C(=O)N[C@@H](CCCCN)C(=O)N[C@@H](CCCCN)C(=O)N[C@@H](CCCCN)C(=O)O)C(C)C", "note": "[Cdc25CpS216] (H-SRSGLYRSP[pS]MPENLNRPRLKQVEKFKDNTIPDKVKKK-OH)", "values": [
      {"measurement": "Kd", "setting": "14-3-3ζ", "value": 5.16, "unit": "µM"}
    ]},
    {"molecule": "COCC1CCC2C1=CC1(C)C(=C(C(C)C)C3CCOC31)C(OC1OC3COC(C)(C)OC3C(O)C1O)C(O)C2C", "note": "(stereo not shown) [FC-THF]", "values": [
      {"measurement": "stabilization of the interaction of 14-3-3 proteins with TASK3", "setting": "[4]", "value": "around 19 fold"},
      {"measurement": "increase in plasma membrane localization", "setting": "[5]", "value": 50, "unit": "%"}
    ]},
    {"molecule": "C[C@H]1CCC/C=C/[C@@H]2C[C@H](O)C[C@H]2[C@H](O)/C=C/C(=O)O1", "note": "[brefeldin A]", "values": [
      {"measurement": "stabilization factor of target protein complex Arf1/Arf1GAP", "setting": "Arf1/Arf1GAP", "value": 10}
    ]},
    {"molecule": "COCC1O[C@H](O[C@@H]2C3=C(C(C)C)CC[C@]3(C)/C=C3\\[C@@H](CC[C@]3(O)COC)[C@@H](C)[C@H]2O)C(O)C2OC3O[C@]12O[C@@]3(C)C1CO1", "note": "(stereo partly shown) [cotylenin A]", "values": [
      {"measurement": "stabilization factor of 14-3-3 binding with C-Raf", "setting": "[6]", "value": 17}
    ]},
    {"molecule": "C=CC(C)(C)OC[C@H]1O[C@H](O[C@@H]2C3=C([C@H](C)COC(C)=O)C[C@H](O)[C@]3(C)/C=C3/[C@@H](COC)CC[C@H]3[C@@H](C)[C@H]2O)[C@H](O)[C@@H](OC(C)=O)[C@@H]1O", "note": "[fusicoccin]", "values": [
      {"measurement": "stabilization factor of 14-3-3 binding with CFTR", "setting": "[7]", "value": 9}
    ]},
    {"molecule": "B1", "values": [
      {"measurement": "Kd", "setting": "Cdc25CpS216 peptide [8]", "value": 2.06, "unit": "µM"},
      {"measurement": "Kd", "setting": "Cdc25CpS216 peptide [9]", "value": 5.16, "unit": "µM"},
      {"measurement": "Kd", "setting": "Cdc25CpS216 peptide [10]", "value": 2.75, "unit": "µM"}
    ]}
  ]
}
